Patent US20240307351A1, “AGENT FOR ANTI-AGING OR FOR CELLULAR REJUVENATION” (TOHOKU UNIVERSITY, priority 2022, published 2024)

How the values were obtained:
[1] = test system: various SIRTs (SIRT1, SIRT2, SIRT3, SIRT5, SIRT6, and SIRT7); assay: Expression levels of various SIRTs in HEI-OC1 cells by Western blotting; format: cell-based, mouse; conditions: HEI-OC1 cell line, 1, 3, 10 or 30 μM, 24 hours, compared with absence of MA5 (0.1% DMSO)
Method: HEI-OC1 cells (mouse inner ear cell line) at 1×10^6 cell/dish were seeded and cultured in a dish containing 10 mL of a culture solution (low-glucose-containing DMEM medium (glucose concentration of 1.0 g/dL) to which 10 wt. % of FBS was added). After one day, 0.1% DMSO as a solvent of the compound or Compound #5 at various concentrations (1 μM, 3 μM, 10 μM, or 30 μM) was added, and the mixture was cultured for 24 hours ([Compound #5 addition group]). After completion of culture, the cells were collected, disrupted by a typical method, and the expression levels of various SIRTs (SIRT1, SIRT2, SIRT3, SIRT5, SIRT6, and SIRT7) in the cells were analyzed by Western blotting (see FIGS. 1-1 and 1-2).

[2] = test system: cochlear cells of the inner ear of Ndufs4 knockout mice; assay: RNA-Seq, pathway and ChIP-Atlas analysis of cochlear cells of Ndufs4 knockout mice; format: in vivo, mouse; conditions: oral, 50 mg/kg/day, 2 weeks
Method: Water-suspended Compound #5 was orally administered to Ndufs4 (NADH-ubiquinone oxidoreductase subunit 4) knockout mice (6 weeks old) at a dose of 50 mg/kg/day per kg of mouse weight for 2 weeks ([MA5 addition group], n=5).
In addition, water was orally administered to Ndufs4 knockout mice (6 weeks old) for 2 weeks ([Vehicle group], n=5).
RNA sequence (RNA-Seq) analysis was performed on cochlear cells of the inner ear of Ndufs4 knockout mice of [MA5 addition group] and [Vehicle group] described above, and genes whose expression levels changed (increased or decreased) in [MA5 addition group] as compared with [Vehicle group] were identified. Based on the names of the genes, pathway analysis was performed on genes whose expression has varied in the inner ear cells of the Ndufs4 knockout mice in [MA5 addition group].
The results of the names of the genes whose expression levels increased or decreased in the Ndufs4 knockout mice of [MA5 addition group] as compared with the Ndufs4 knockout mice of [Vehicle group] in the RNA sequence (RNA-Seq) analysis were used to perform integrated analysis with ChIP-Atlas to investigate transcription factors possibly related to these genes.

liver cells of aged mice = assay: RNA-Seq and ChIP-Atlas analysis of liver cells of aged mice; format: in vivo, mouse; conditions: oral, 50 mg/kg/day, 2 months, Table 4
Method: Water-suspended Compound #5 was orally administered to C57BL6 mice (92 weeks old) at a dose of 50 mg/kg/day per kg of mouse weight for 2 months ([MA5 addition group], n=5). After 2 months of oral administration, the mice were 101 weeks old.
In addition, water was orally administered to C57BL6 mice (92 weeks old) for 2 months ([Vehicle group], n=5). After 2 months of oral administration, the mice were 101 weeks old.
RNA sequencing (RNA-Seq) analysis was performed on the liver cells of aged mice in [MA5 addition group] and [Vehicle group] to identify genes whose expression levels changed (increased or decreased) in [MA5 addition group] as compared with the […]. Using the results of these gene names, integrated analysis with ChIP-Atlas was performed to investigate transcription factors possibly related to these genes.

[3] = test system: NDUFS4 homozygous knockout mice (Ndufs4−/−mice); assay: Electron microscopic observation of liver tissue (fatty liver) of Ndufs4−/− mice; format: in vivo; conditions: oral, 0.1 kg/day per mg of mouse weight, 24 days, vs Control 1 group (water)
Description: Compound #5 was orally administered to NDUFS4 homozygous knockout mice (Ndufs4−/−mice) (4 weeks old) at a dose of 0.1 kg/day per mg of mouse weight for 24 days ([Compound #5 administration group]).
In addition, water was orally administered to NDUFS4 homozygous knockout mice (Ndufs4−/−mice) for 24 days ([DMSO group; Control 1 group]). Further, water was orally administered to wild-type mice for 24 days ([Control 2 group]).

SIRTI protein = assay: Amount of SIRT1 protein in RH30 cells by Western blotting; format: cell-based, human; conditions: 30 μM, 24 hours, compared with Control group (DMSO)
Method: RH30 cells (human rhabdomyosarcoma cell line; gli gene expression+, N-myc gene expression+) at 1×10^6 cell/dish were seeded and cultured in a dish containing 10 mL of a culture solution (low-glucose-containing DMEM medium (glucose concentration of 1.0 g/dL) to which 10 wt. % of FBS was added). One day later, Compound #5 was added to have a concentration of 30 μM, and the mixture was cultured for 24 hours ([Compound #5 addition group]). Compound #9, Compound #13, Compound #21, Compound #30, or Compound #35 as the present compound was added in place of Compound #5, and the mixture was cultured in the same manner, respectively, as [Compound #9 addition group], [Compound #13 addition group], [Compound #21 addition group], [Compound #30 addition group], and […].
On the other hand, as a control, DMSO (dimethyl sulfoxide) was added to have a concentration of 0.2 wt. %, and the mixture was cultured for 24 hours ([Control group]).
After completion of culture, the cells were recovered, disrupted by a typical method, and the amount of each of the proteins (SIRTI proteins, etc.) in the cells was detected by Western blotting. Further, the results of quantification of each band in the detection results of the Western blotting in FIG. 6 through normalization with the band of β-actin as a loading control are shown in FIG. 7.

For `O=C(CC(C(=O)O)c1c[nH]c2ccccc12)c1ccc(F)cc1F` (stereo not drawn) [Compound #5, 4-(2,4-difluorophenyl)-2-(1H-indole-3-yl)-4-oxo-butanoic acid], the “expression levels of various SIRTs in the cells” value [1] was “increased”, the “IGF1 signaling pathway (pathway analysis)” value [2] was “enhanced” and the “transcription factors related to genes whose expression increased (ChIP-Atlas)” value ([2]; Table 5) was “SOX2 and MYC, which are reprogramming factors necessary for the production of iPS cells, and POU2F1 (OCT1)”. The “transcription factors related to genes whose expression increased (ChIP-Atlas)” value (liver cells of aged mice) was “FOXO1 known as longevity genes and PPARA”, the “fat deposition in hepatocytes (fatty liver)” value [3] was “clear reduction” and the “amount of SIRTI protein in cells” value (SIRTI protein) was “increased”.
